# Assay results: patent US5068247A, “2-aminopentanoic acid compounds and their use as immunosuppressants” (priority 1989, dated 1991)
# Where two headings read alike, the source gives them in different places.
# Experiments:
# Type in all cases: cell-based
# [1] = test system: mouse allogenic MLR (BALB/c mouse spleen cells stimulated with C57BL/6 mouse spleen cells); assay: mouse allogenic mixed lymphocyte reaction (MLR), 3H-thymidine uptake; settings: for inhibition at 0.0001 µg/mL / inhibition at 0.001 µg/mL / inhibition at 0.01 µg/mL / inhibition at 0.1 µg/mL / inhibition at 1 µg/mL / IC50: Mus musculus, Lymphocyte; for inhibition at 0.0001 µg/mL / inhibition at 0.001 µg/mL / inhibition at 0.01 µg/mL / inhibition at 0.1 µg/mL / inhibition at 1 µg/mL: read-out: Suppression; for IC50: read-out: 50%-inhibition concentration (IC50) in mouse allogenic MLR
# Summary of the method: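 BALB/c responder spleen cells were mixed in equal amounts with mitomycin C-treated (40 μg/ml, 60 min, 37 °C) C57BL/6 stimulator spleen cells, each at 10^7 cells/ml in RPMI1640 with 20% FCS and 10^-4 M 2-mercaptoethanol. Blastogenesis was read as 3H-thymidine uptake (18.5 KBq/well, 4 h) after culture and expressed as % suppression. Compounds were dissolved in methanol, then diluted in medium.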
# [2] = test system: IL-2 production in PHA-stimulated mouse spleen cells; assay: suppression of IL-2 production in PHA-stimulated mouse spleen cells; settings: for inhibition at 0.001 µg/mL / inhibition at 0.01 µg/mL / inhibition at 0.1 µg/mL / inhibition at 1 µg/mL: Mus musculus, 24 h, read-out: Suppression
# Protocol: (§1) The suppression of IL-2 and IL-3 production in the mitogen-stimulated mouse spleen cells was examined as follows:
# (§2) The spleen was resected from 5- to 8-week-old male C3H/HeN mice, and a single cell suspension of spleen cells was prepared by using the RPMI1640 culture medium. After hemolytic treatment, the concentration of the suspension was adjusted to 10^7 cells/ml by using the RPMI1640 culture medium supplemented with 20% FCS, to which 10 μg/ml of phytohemagglutinin (PHA) was added as mitogen. […] After termination of culture, the supernatant was collected and used as the culture supernatant of PHA-stimulated mouse spleen cells.
# The IL-2 activity in the culture supernatant of PHA-stimulated mouse spleen cells was assayed as follows:
# IL-2 dependent mouse cell line CTLL-2 cells were suspended in the RPMI1640 culture medium supplemented with 30% FCS to the concentration of 2×10^5 cells/ml. One hundred μl of the cell suspension and 100 μl of the two-fold serial dilution of the culture supernatant of PHA-stimulated mouse spleen cells were added to a 96-well flat-bottomed microtest plate. […] The IL-2 activity is expressed in U/ml as the dilution at which the absorbancy measured by MTT method was 50% of the maximum.
# [3] = test system: IL-3 production in PHA-stimulated mouse spleen cells; assay: suppression of IL-3 production in PHA-stimulated mouse spleen cells; settings: for inhibition at 0.001 µg/mL / inhibition at 0.01 µg/mL / inhibition at 0.1 µg/mL / inhibition at 1 µg/mL: Mus musculus, 24 h, read-out: Suppression
# Protocol: as §1, §2
# The IL-3 activity was assayed as follows:
# IL-3-dependent mouse cell line FDC-P2 cells were suspended in the RPMI1640 culture medium supplemented with 10% FCS to the concentration of 2×10^5 cells/ml. One hundred μl of the cell suspension and 100 μl of the two-fold serial dilution of the culture supernatant of PHA-stimulated mouse spleen cells described above were added to a 96-well flat-bottomed microtest plate. […] The IL-3 activity is expressed in U/ml as the dilution at which the absorbancy measured by MTT method was 50% of the maximum.
# CTLL-2 cells = assay: suppression of proliferation of IL-2-dependent mouse cell line CTLL-2 induced by IL-2; settings: IL-2 50 U/ml
# Protocol: IL-2-dependent mouse cell line CTLL-2 cells were suspended in the RPMI1640 culture medium supplemented with 30% FCS to the concentration of 4×10^5 cells/ml. Fifty μl of the cell suspension, 50 μl of 200 U/ml recombinant human IL-2 (rhIL-2) and 100 μl of the test substance were added to a 96-well flat-bottomed microtest plate. […] The percent suppression (%) was calculated by the following formula. [formula]
compound,measurement,setting,value
CCCCCCC1(CCCCCC/C=C/C[C@@H](O)[C@H](O)[C@@](N)(CO)C(=O)O)SCCS1 [Example 3],3H-thymidine uptake,"[1]; 0.0001 μg/ml, Table 1A",17247 cpm
same,3H-thymidine uptake,"[1]; 0.001 μg/ml, Table 1A",16263 cpm
same,3H-thymidine uptake,"[1]; 0.01 μg/ml, Table 1A",13978 cpm
same,3H-thymidine uptake,"[1]; 0.1 μg/ml, Table 1A",14747 cpm
same,3H-thymidine uptake,"[1]; 1 μg/ml, Table 1A",631 cpm
same,inhibition at 0.0001 µg/mL,"[1]; 0.0001 μg/ml, Table 1A",7.1%
same,inhibition at 0.001 µg/mL,"[1]; 0.001 μg/ml, Table 1A",12.9%
same,inhibition at 0.01 µg/mL,"[1]; 0.01 μg/ml, Table 1A",26.5%
same,inhibition at 0.1 µg/mL,"[1]; 0.1 μg/ml, Table 1A",21.9%
same,inhibition at 1 µg/mL,"[1]; 1 μg/ml, Table 1A",96.2%
same,IC50,[1],0.25 mg/L
same,IL-2 activity,[2]; 0.001 μg/ml,14.9 U/ml
same,IL-2 activity,[2]; 0.01 μg/ml,13.9 U/ml
same,IL-2 activity,[2]; 0.1 μg/ml,12.6 U/ml
same,IL-2 activity,[2]; 1 μg/ml,8.6 U/ml
same,inhibition at 0.001 µg/mL,[2]; 0.001 μg/ml,0%
same,inhibition at 0.01 µg/mL,[2]; 0.01 μg/ml,0%
same,inhibition at 0.1 µg/mL,[2]; 0.1 μg/ml,0%
same,inhibition at 1 µg/mL,[2]; 1 μg/ml,28.9%
same,IL-3 activity,[3]; 0.001 μg/ml,42.2 U/ml
same,IL-3 activity,[3]; 0.01 μg/ml,45.3 U/ml
same,IL-3 activity,[3]; 0.1 μg/ml,42.2 U/ml
same,IL-3 activity,[3]; 1 μg/ml,27.9 U/ml
same,inhibition at 0.001 µg/mL,[3]; 0.001 μg/ml,0%
same,inhibition at 0.01 µg/mL,[3]; 0.01 μg/ml,0%
same,inhibition at 0.1 µg/mL,[3]; 0.1 μg/ml,0%
same,inhibition at 1 µg/mL,[3]; 1 μg/ml,24.2%
same,optical density (OD570),"CTLL-2 cells; 0.001 μg/ml, Table 6A",0.551
same,optical density (OD570),"CTLL-2 cells; 0.01 μg/ml, Table 6A",0.449
same,optical density (OD570),"CTLL-2 cells; 0.1 μg/ml, Table 6A",0.471
same,optical density (OD570),"CTLL-2 cells; 1 μg/ml, Table 6A",0.152
same,inhibition at 0.001 µg/mL,"CTLL-2 cells; Mus musculus, CTLL-2, 68 h, 0.001 μg/ml, Table 6A, read-out: Suppression",6%
same,inhibition at 0.01 µg/mL,"CTLL-2 cells; Mus musculus, CTLL-2, 68 h, 0.01 μg/ml, Table 6A, read-out: Suppression",23.4%
same,inhibition at 0.1 µg/mL,"CTLL-2 cells; Mus musculus, CTLL-2, 68 h, 0.1 μg/ml, Table 6A, read-out: Suppression",19.7%
same,inhibition at 1 µg/mL,"CTLL-2 cells; Mus musculus, CTLL-2, 68 h, 1 μg/ml, Table 6A, read-out: Suppression",74.2%
CCCCCCCCCCCCC/C=C/C[C@@H](O)[C@H](O)[C@@](N)(CO)C(=O)O [Example 5],3H-thymidine uptake,"[1]; 0.0001 μg/ml, Table 1A",15747 cpm
same,3H-thymidine uptake,"[1]; 0.0001 μg/ml, Table 1B",4485 ± 812 cpm
same,Suppression,"[1]; 0.0001 μg/ml, Table 1B",18.1%
same,3H-thymidine uptake,"[1]; 0.001 μg/ml, Table 1A",2384 cpm
same,3H-thymidine uptake,"[1]; 0.001 μg/ml, Table 1B",6101 ± 356 cpm
same,Suppression,"[1]; 0.001 μg/ml, Table 1B",0%
same,3H-thymidine uptake,"[1]; 0.01 μg/ml, Table 1A",1421 cpm
same,3H-thymidine uptake,"[1]; 0.01 μg/ml, Table 1B",1013 ± 314 cpm
same,3H-thymidine uptake,"[1]; 0.1 μg/ml, Table 1A",1091 cpm
same,3H-thymidine uptake,"[1]; 0.1 μg/ml, Table 1B",359 ± 54 cpm
same,3H-thymidine uptake,"[1]; 1 μg/ml, Table 1A",1163 cpm
same,3H-thymidine uptake,"[1]; 1 μg/ml, Table 1B",52 ± 24 cpm
same,inhibition at 0.0001 µg/mL,"[1]; 0.0001 μg/ml, Table 1A",16%
same,inhibition at 0.001 µg/mL,"[1]; 0.001 μg/ml, Table 1A",95.5%
same,inhibition at 0.01 µg/mL,"[1]; 0.01 μg/ml, Table 1A",100%
same,inhibition at 0.01 µg/mL,"[1]; 0.01 μg/ml, Table 1B",92.2%
same,inhibition at 0.1 µg/mL,"[1]; 0.1 μg/ml, Table 1A",100%
same,inhibition at 0.1 µg/mL,"[1]; 0.1 μg/ml, Table 1B",100%
same,inhibition at 1 µg/mL,"[1]; 1 μg/ml, Table 1A",100%
same,inhibition at 1 µg/mL,"[1]; 1 μg/ml, Table 1B",100%
same,IC50,[1],0.00025 mg/L
same,IL-2 activity,[2]; 0.001 μg/ml,8.6 U/ml
same,IL-2 activity,[2]; 0.01 μg/ml,4.6 U/ml
same,IL-2 activity,[2]; 0.1 μg/ml,4.3 U/ml
same,IL-2 activity,[2]; 1 μg/ml,2.7 U/ml
same,inhibition at 0.001 µg/mL,[2]; 0.001 μg/ml,36.3%
same,inhibition at 0.01 µg/mL,[2]; 0.01 μg/ml,65.9%
same,inhibition at 0.1 µg/mL,[2]; 0.1 μg/ml,68.1%
same,inhibition at 1 µg/mL,[2]; 1 μg/ml,80%
same,IL-3 activity,[3]; 0.001 μg/ml,22.0 U/ml
same,IL-3 activity,[3]; 0.01 μg/ml,13.2 U/ml
same,IL-3 activity,[3]; 0.1 μg/ml,12.0 U/ml
same,IL-3 activity,[3]; 1 μg/ml,9.5 U/ml
same,inhibition at 0.001 µg/mL,[3]; 0.001 μg/ml,10.2%
same,inhibition at 0.01 µg/mL,[3]; 0.01 μg/ml,10.2%
same,inhibition at 0.1 µg/mL,[3]; 0.1 μg/ml,51%
same,inhibition at 1 µg/mL,[3]; 1 μg/ml,62.2%
same,optical density (OD570),"CTLL-2 cells; 0.01 μg/ml, Table 6B",0.915
same,optical density (OD570),"CTLL-2 cells; 0.1 μg/ml, Table 6B",0.322
same,optical density (OD570),"CTLL-2 cells; 1 μg/ml, Table 6B",0.239
same,inhibition at 0.01 µg/mL,"CTLL-2 cells; Mus musculus, CTLL-2, 68 h, 0.01 μg/ml, Table 6B, read-out: Suppression",4.9%
same,inhibition at 0.1 µg/mL,"CTLL-2 cells; Mus musculus, CTLL-2, 68 h, 0.1 μg/ml, Table 6B, read-out: Suppression",68.3%
same,inhibition at 1 µg/mL,"CTLL-2 cells; Mus musculus, CTLL-2, 68 h, 1 μg/ml, Table 6B, read-out: Suppression",77.2%
